Measured values: publication PMC9855371, “Antiparasitic Activity of Fluorophenyl-Substituted Pyrimido[1,2-a]benzimidazoles” (Biomedicines, 2023)

How the values were obtained:
[1] = system: Toxoplasma gondii; assay: Toxoplasma gondii tachyzoite (RH strain) growth in infected Vero cells, infection index; format: cell-based; settings: after 72 h, means of n = 3, SD ± 15%, read-out: EC50 (T. gondii)
Experimental: Serial passages of cells of the Vero cell line (ATCC® CCL81™, Manassas, VA, USA) were applied for the cultivation of T. gondii tachyzoites of the RH strain (a gift from Dr. Saeed El-Ashram, State Key Laboratory for Agrobiotechnology, China Agricultural University, Beijing, China). Vero cells were cultured by using complete RPMI 1640 medium with heat-inactivated 10% FBS in a humidified 5% CO2 atmosphere, at 37 °C. The 96-well plates (5 × 10^3 cells/well in 200 µL RPMI 1640 medium) were used for the cultivation of the Vero cells and then incubated, at 37 °C, and 5% CO2 for one day, followed by removal of medium and washing the cells with PBS. Then, RPMI 1640 medium containing 2% FBS and T. gondii tachyzoites (RH strain) was given to the cells at a ratio of 5 (parasite):1 (Vero cells). After incubation, at 37 °C, and 5% CO2 for 5 h, cells were washed with PBS and then treated as described below.
Control: RPMI 1640 medium containing DMSO (1%)
Experimental: Medium + compounds (dissolved in DMSO) (50, 25, 12.5, 6.25, 3.13, 1.65, and 0.75 µg mL^−1).
After incubation, at 37 °C, and 5% CO2 for 72 h, the cells were washed with PBS, fixed in 10% formalin and stained with 1% toluidine blue. Examination of the cells and determination of the infection index (number of cells infected from 200 cells tested) of T. gondii were carried out with an inverted photomicroscope. The following equation was used for the calculation of the inhibition in %:Inhibition (%) = (I Control − I Experimental)/(I Control) × 100 where “I Control” refers to the infection index of untreated cells and “I Experimental” refers to the infection index of cells treated with test compounds.
Then, effects of test compounds on parasite growth were expressed as EC50 (effective concentration at 50%) values. EC50 values were obtained from three independent experiments.

[2] = system: Vero cells; assay: In vitro cytotoxicity MTT assay in Vero cells; format: cell-based; settings: Chlorocebus sabaeus; after 72 h; Vero cells (African green monkey kidney epithelial cells); means of n = 3, SD ± 15%
Experimental: MTT assays were carried out for a cytotoxicity evaluation of the test compounds. Briefly, Vero cells were cultured in 96-well plates (5 × 10^3 cells/well/200 µL) for 24 h in RPMI 1640 medium with 10% FBS and 5% CO2, at 37 °C. Cells were washed with PBS, followed by treatment with test compounds for 72 h at varying concentrations (50, 25, 12.5, 6.25, 3.13, 1.65, and 0.75 µg mL^−1) in 10% FBS medium. Cells treated solely with medium in 2% FBS were used as a negative control. The supernatant was discarded, 50 µL RPMI 1640 medium containing 14 µL MTT (5 mg mL^−1) was added, and the cells were incubated for 4 h. The supernatant was removed again, and 150 µL DMSO was added in order to dissolve the formed formazan. A FLUOstar OPTIMA spectrophotometer was applied for colorimetric analysis (λ = 540 nm). The cytotoxicity was expressed by IC50 values (concentration which caused a 50% reduction in viable cells). IC50 values were calculated from three independent experiments.

[3] = system: Leishmania major promastigotes; assay: Leishmania major promastigote viability, MTT assay; format: cell-based; settings: Leishmania major promastigotes after 72 h, means of n = 3, SD ± 15%
[4] = system: Leishmania major amastigotes; assay: Leishmania major amastigotes in peritoneal macrophages, percentage of infected macrophages (Giemsa); format: cell-based; settings: Leishmania major amastigotes after 72 h, means of n = 3, SD ± 15%
[5] = system: macrophages; assay: Effects of test compounds on macrophages (toxicity); format: cell-based, BALB/c mice; settings: means of n = 3, SD ± 15%

Row | EC50 ([3]; Leishmania major, 72 h) | EC50 ([4]; Leishmania major, 72 h) | EC50 [3] | EC50 [4] | melting point | SMILES | EC50 [1] | IC50 [2] | IC50 ([5]; Mus musculus, Macrophage) | IC50 [5]
1 |  |  |  |  |  | O=C1C(O)=C([C@H]2CC[C@H](c3ccc(Cl)cc3)CC2)C(=O)c2ccccc21 [ATO, atovaquone, reference compound] | 0.07 µM | 9.5 µM |  | 
2 | 0.83 µM | 0.47 µM |  |  |  | C[C@@H]1[C@H](O)[C@@H](C)/C=C/C=C/C=C/C=C/C=C/C=C/C=C/[C@H](O[C@@H]2O[C@H](C)[C@@H](O)[C@H](N)[C@@H]2O)C[C@@H]2O[C@](O)(C[C@@H](O)C[C@@H](O)[C@H](O)CC[C@@H](O)C[C@@H](O)CC(=O)O[C@H]1C)C[C@H](O)[C@H]2C(=O)O [AmB, Amphotericin B, reference compound] |  | 7.7 µM |  | 
3 | 0.2 to 0.4 µM | 0.2 to 0.4 µM | 0.39 µM | 0.2 µM | 216 to 217 °C (dec.) | N#CC1=C(N)n2c(nc3ccccc32)NC1c1cccc(F)c1 (centres unmarked) [Compound 2a, 4-Amino-2-(3-fluorophenyl)-1,2-dihydropyrimido[1,2-a]benzimidazole-3-carbonitrile] | 4.59 µM | 4.32 µM | 0.98 µM | 
4 | 108 µM | 22.9 µM |  |  | 279 to 280 °C | N#CC1=C(N)n2c(nc3ccccc32)NC1c1cc(F)cc(F)c1 (centres unmarked) [Compound 2b, 4-Amino-2-(3,5-difluorophenyl)-1,2-dihydropyrimido[1,2-a]benzimidazole-3-carbonitrile] | 43.6 µM | 33.1 µM | 28.5 µM | 
5 | 49.8 µM | 24.9 µM |  |  |  | N#CC1=C(N)n2c(nc3ccccc32)NC1c1ccccc1F (centres unmarked) [Compound 2c] | 26.9 µM | 18.3 µM | 31.4 µM | 
6 | 14.4 µM | 26.9 µM |  |  |  | N#CC1=C(N)n2c(nc3ccccc32)NC1c1ccc(F)cc1 (centres unmarked) [Compound 2d] | 27.8 µM | 26.9 µM | 19.3 µM | 
7 | 77.9 µM | 75.5 µM |  |  | 282 to 283 °C | COc1cc(C2Nc3nc4ccccc4n3C(N)=C2C#N)cc(Br)c1OC (centres unmarked) [Compound 2e, 4-Amino-2-(3-bromo-4,5-dimethoxyphenyl)-1,2-dihydropyrimido[1,2-a]benzimidazole-3-carbonitrile] | 28.6 µM | 57.2 µM | 64 µM | 63.8 µM
8 | 35.6 µM | 28 µM |  |  | > 370 °C (dec.) | N#Cc1c(-c2cccc(F)c2)nc2nc3ccccc3n2c1N [Compound 3a, 4-Amino-2-(3-fluorophenyl)pyrimido[1,2-a]benzimidazole-3-carbonitrile] | 35.9 µM | 38.3 µM | 22.4 µM | 
9 | 13.7 µM | 29 µM |  |  | > 370 °C (dec.) | N#Cc1c(-c2cc(F)cc(F)c2)nc2nc3ccccc3n2c1N [Compound 3b, 4-Amino-2-(3,5-difluorophenyl)pyrimido[1,2-a]benzimidazole-3-carbonitrile] | 2.8 µM | 22.7 µM | 24.3 µM | 
10 | 32 µM | 27 µM |  |  | > 350 °C (dec.) | N#Cc1c(-c2ccccc2F)nc2nc3ccccc3n2c1N [Compound 3c, 4-Amino-2-(2-fluorophenyl)pyrimido[1,2-a]benzimidazole-3-carbonitrile] | 20.8 µM | 25.7 µM | 21.1 µM | 
11 | 36.9 µM | 26.1 µM |  |  |  | N#Cc1c(-c2ccc(F)cc2)nc2nc3ccccc3n2c1N [Compound 3d] | 41.9 µM | 43.5 µM | 20.1 µM | 
12 | 20.3 µM | 50.9 µM |  |  | > 260 °C (dec.) | N#CC1=C(n2cccc2)n2c(nc3ccccc32)NC1c1cccc(F)c1 (centres unmarked) [Compound 4a, 4-Pyrrolo-2-(3-fluorophenyl)-1,2-dihydropyrimido[1,2-a]benzimidazole-3-carbonitrile] | 33.2 µM | 34.9 µM | 41.4 µM | 
13 | 28.9 µM | 46.1 µM |  |  | > 240 °C | N#CC1=C(n2cccc2)n2c(nc3ccccc32)NC1c1cc(F)cc(F)c1 (centres unmarked) [Compound 4b, 4-Pyrrolo-2-(3,5-difluorophenyl)-1,2-dihydropyrimido[1,2-a]benzimidazole-3-carbonitrile] | 18.2 µM | 32.4 µM | 39.9 µM | 
14 | 15.2 µM | 49.2 µM |  |  | > 240 °C (dec.) | N#CC1=C(n2cccc2)n2c(nc3ccccc32)NC1c1ccccc1F (centres unmarked) [Compound 4c, 4-Pyrrolo-2-(2-fluorophenyl)-1,2-dihydropyrimido[1,2-a]benzimidazole-3-carbonitrile] | 24.8 µM | 23.6 µM | 43.9 µM | 
15 | 32.1 µM | 51.5 µM |  |  | > 260 °C | N#CC1=C(n2cccc2)n2c(nc3ccccc32)NC1c1ccc(F)cc1 (centres unmarked) [Compound 4d, 4-Pyrrolo-2-(4-fluorophenyl)-1,2-dihydropyrimido[1,2-a]benzimidazole-3-carbonitrile] | 34.9 µM | 41.4 µM | 47.3 µM | 

Row | SMILES | EC50 ([3]; Leishmania major, 72 h) | EC50 ([4]; Leishmania major, 72 h) | EC50 [3] | EC50 [4] | melting point | EC50 [1] | IC50 [2] | IC50 ([5]; Mus musculus, Macrophage) | IC50 [5]
16 | N#CC1=C(N)n2c(nc3ccccc32)NC1c1cccnc1 (centres unmarked) [Compound 2f, 4-Amino-2-(3-pyridyl)-1,2-dihydropyrimido[1,2-a]benzimidazole-3-carbonitrile] | 53.4 µM | 116 µM |  |  | 289 to 290 °C | 60 µM | 106 µM | 86 µM | 
